pEC50: −log10 of the molar value. Read-outs that look alike come from different tables or passages of the source.
Key:
[1] = system: influenza B virus; assay: Antiviral activity in MDCK cells measured by ATP levels (CellTiter-Glo), influenza B; type: cell-based; conditions: read-out: Cell Protection Assay EC50 ± SD
[2] = system: influenza virus; type: in vivo, mice
[3] = Human influenza challenge: safety assessment, adverse events; type: in vivo, healthy volunteers (humans)
From the text: A list of adverse events occurring in ≥10% of subjects in any treatment group is presented (Table 29). Influenza-like illness was the most frequently reported adverse event, and was reported by an approximately equal proportion of subjects in the placebo and Compound (1) groups.

## O=C(O)[C@H]1[C@H]2CC[C@H](CC2)[C@@H]1Nc1nc(-c2c[nH]c3ncc(F)cc23)ncc1F [Compound (1)]
[1]; B/Russia/69
  pEC50: < 8.00
[1]; Influenza B virus, MDCK, B/Lee/40
  pEC50: < 8.00
[2]; mice infected 24 h, then dosed for 24 h (q6 h, q12 h, q24 h)
  half maximal reduction in lung titers: 2-3 log
[2]; plasma concentration near which half maximal reduction in lung titers occurs
  serum-shifted EC99: 100 ng/mL
[3]; 100 mg to 1200/600 mg QD for 5 days, healthy volunteers
  tolerability: well tolerated
[3]; 100 mg, N = 16
  Adverse event: Alanine aminotransferase increased: 3 (18.8) n(%)
  Adverse event: Aspartate aminotransferase increased: 1 (6.3) n(%)
  Adverse event: Blood phosphorus decreased: 3 (18.8) n(%)
  Adverse event: Dermatitis contact: 3 (18.8) n(%)
  Adverse event: Headache: 1 (6.3) n(%)
  Adverse event: Influenza-like illness: 8 (50.0) n(%)
  Adverse event: Malaise: 2 (12.5) n(%)
  Adverse event: Nasal congestion: 0 n(%)
  Adverse event: Nausea: 0 n(%)
  Adverse event: Oropharylngeal pain: 2 (12.5) n(%)
  Adverse event: Rhinorrhea: 0 n(%)
  Adverse event: Spirometry abnormal: 2 (12.5) n(%)
  Adverse event: Tension Headache: 0 n(%)
[3]; 400 mg, N = 19
  Adverse event: Alanine aminotransferase increased: 1 (5.3) n(%)
  Adverse event: Aspartate aminotransferase increased: 1 (5.3) n(%)
  Adverse event: Blood phosphorus decreased: 0 n(%)
  Adverse event: Dermatitis contact: 0 n(%)
  Adverse event: Headache: 4 (21.1) n(%)
  Adverse event: Influenza-like illness: 10 (52.6) n(%)
  Adverse event: Malaise: 0 n(%)
  Adverse event: Nasal congestion: 0 n(%)
  Adverse event: Nausea: 2 (10.5) n(%)
  Adverse event: Oropharylngeal pain: 0 n(%)
  Adverse event: Rhinorrhea: 2 (10.5) n(%)
  Adverse event: Spirometry abnormal: 4 (21.1) n(%)
  Adverse event: Tension Headache: 2 (10.5) n(%)
[3]; 900/600 mg, N = 19
  Adverse event: Alanine aminotransferase increased: 0 n(%)
  Adverse event: Aspartate aminotransferase increased: 0 n(%)
  Adverse event: Blood phosphorus decreased: 6 (31.6) n(%)
  Adverse event: Dermatitis contact: 0 n(%)
  Adverse event: Headache: 0 n(%)
  Adverse event: Influenza-like illness: 9 (47.4) n(%)
  Adverse event: Malaise: 0 n(%)
  Adverse event: Nasal congestion: 0 n(%)
  Adverse event: Nausea: 1 (5.3) n(%)
  Adverse event: Oropharylngeal pain: 1 (5.3) n(%)
  Adverse event: Rhinorrhea: 0 n(%)
  Adverse event: Spirometry abnormal: 0 n(%)
  Adverse event: Tension Headache: 1 (5.3) n(%)
[3]; 1200/600 mg, N = 18
  Adverse event: Alanine aminotransferase increased: 6 (33.3) n(%)
  Adverse event: Aspartate aminotransferase increased: 2 (11.1) n(%)
  Adverse event: Blood phosphorus decreased: 4 (22.2) n(%)
  Adverse event: Dermatitis contact: 0 n(%)
  Adverse event: Headache: 2 (11.1) n(%)
  Adverse event: Influenza-like illness: 7 (38.9) n(%)
  Adverse event: Malaise: 0 n(%)
  Adverse event: Nasal congestion: 1 (5.6) n(%)
  Adverse event: Nausea: 0 n(%)
  Adverse event: Oropharylngeal pain: 0 n(%)
  Adverse event: Rhinorrhea: 1 (5.6) n(%)
  Adverse event: Spirometry abnormal: 4 (22.2) n(%)
  Adverse event: Tension Headache: 0 n(%)
[3]; Compound (1) groups
  adverse event incidence: decreased blood phosphorus level: 18.1%
  adverse event incidence: nasal congestion: 1.4%
  adverse event incidence: rhinorrhea: 4.2%
[3]; Pooled Compound (1), N = 72
  Adverse event: Alanine aminotransferase increased: 10 (13.9) n(%)
  Adverse event: Aspartate aminotransferase increased: 4 (5.6) n(%)
  Adverse event: Blood phosphorus decreased: 13 (18.1) n(%)
  Adverse event: Dermatitis contact: 3 (4.2) n(%)
  Adverse event: Headache: 7 (9.7) n(%)
  Adverse event: Influenza-like illness: 34 (47.2) n(%)
  Adverse event: Malaise: 2 (2.8) n(%)
  Adverse event: Nasal congestion: 1 (1.4) n(%)
  Adverse event: Nausea: 3 (4.2) n(%)
  Adverse event: Oropharylngeal pain: 3 (4.2) n(%)

Source: US11345700B2, “Methods of preparing inhibitors of influenza viruses replication” (priority 2013, dated 2022)
